Measured values: patent US20030064434A1, “Novel G Protein-coupled receptor, GAVE1” (Aventis Pharmaceuticals, Inc., priority 2001, published 2003)

What was measured:
GAVE1 (Homo sapiens) = assay: FLIPR assay, change in fluorescence of GAVE1 expressing CHO cells; type: cell-based; settings: CHO cells expressing GAVE1, increasing amounts of ligand; untransformed CHO cells show control level
Excerpt: To screen for agonists of human GAVE1, hGAVE1 is artificially coupled to a Gq signaling package. Activation of the Gq mechanism stimulates the release of Ca^2+ from sarcoplasmic reticulum vesicles within the cell. The Ca^2+ is released into the cytoplasm where it can be detected using Ca^2+ chelating dyes. A Fluorometric Imaging Plate Reader or FLIPR® apparatus (Molecular Devices) is used to monitor any resulting changes in fluorescence. The activity of an agonist is reflected by an increase in fluorescence.
CHO-K1 cells expressing hGAVE1 are pre-engineered to express an indiscriminate form of Gq protein (Gα16). […]
A compound library containing possible agonists will be tested at 10 μM concentration in physiological salt buffer. Changes in fluorescence are measured for 10 seconds prior to compound addition. After the addition of the compound, fluorescence is measured every second for the first minute followed by exposures taken every six seconds for a total experimental analysis time of three minutes. […] The maximum fluorescence changes for the first 80 scans is recorded as a measure of agonist activity and compared to the maximum fluorescence change induced by 10 μM ATP (Sigma A9062).

[1] = system: GAVE1 expression in rat cardiac myocytes; assay: Northern blot of GAVE1 RNA levels in cardiomyocytes exposed to phenylephrine; type: cell-based; settings: rat cardiac myocytes stimulated 48 hours with 10^-5 M phenylephrine; compared to control (untreated) or vehicle-treated myocytes
Procedure: FIG. 7 is a computer representation of a Northern blot depicting GAVE1 RNA levels of cardiomyocytes expressing GAVE1 exposed to medium, vehicle and vehicle containing phenylephrine.
Northern blot analysis is performed on RNA derived from several human tissue samples to determine whether the tissues express the hGAVE1 receptor gene. The probe used is P^32-labeled hGAVE1 cDNA.
P32-labeled hGAVE1 cDNA is prepared as follows. Twenty-five ng hGAVE1 cDNA prepared as described above is resuspended to 45 μl of 10 mM Tris-HCl, pH 7.5; 1 mM EDTA in a microfuge tube and heated at 95° C. for 5 minutes. The tube then is chilled on ice for another 5 minutes. Following chilling, the mixture contained in the tube is resuspended with the 45 μl GAVE1 cDNA and buffer as described above and mixed with RTS Rad Prime Mix (supplied with the RTS Rad Prime DNA-labeling System) (Life Technologies, Catalog No. 10387-017). Five μl of P^32-labeled α-dCTP, specific activity: 3000 Ci/mM, (Amersham, AA0005) is added while mixing gently but thoroughly. The resulting mixture is incubated at 37° C. for 10 minutes. Incubation is stopped by the addition of 5 μl of 0.2 M EDTA, pH 8.0. Incorporation of the radioactive alpha-dCTP into the hGAVE1 cDNA is evaluated by taking a 5 μl aliquot of the mixture and counting the radioactivity. […]

Chain of GAVE1 (Homo sapiens) (P21453 whole entry): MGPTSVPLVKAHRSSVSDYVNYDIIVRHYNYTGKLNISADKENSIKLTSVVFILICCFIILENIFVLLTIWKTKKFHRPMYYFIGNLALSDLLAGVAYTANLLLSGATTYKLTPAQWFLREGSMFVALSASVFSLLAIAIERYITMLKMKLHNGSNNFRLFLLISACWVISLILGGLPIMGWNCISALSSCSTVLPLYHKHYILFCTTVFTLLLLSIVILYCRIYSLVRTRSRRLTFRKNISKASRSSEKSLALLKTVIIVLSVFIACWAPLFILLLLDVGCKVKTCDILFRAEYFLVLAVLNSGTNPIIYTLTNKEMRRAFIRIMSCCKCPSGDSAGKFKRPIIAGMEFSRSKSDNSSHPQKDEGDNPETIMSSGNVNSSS

| SMILES | change in fluorescence (GAVE1 activity) (GAVE1 (Homo sapiens)) | level of GAVE1 expression [1] |
| --- | --- | --- |
| CCCCCCCCCCCCC/C=C/[C@@H](O)[C@@H](N)COP(=O)(O)O [S1P, sphingosine-1-phosphate] | positive correlation of activity with increasing amounts of ligand | – |
| CNC[C@H](O)c1cccc(O)c1 [phenylephrine] | – | up-regulated several-fold |
